In patent US20140038920A1, “TFEB PHOSPHORYLATION INHIBITORS AND USES THEREOF” (FONDAZIONE TELETHON, priority 2011, published 2014):

These molecules were tested on TFEB (assay: High content TFEB-GFP nuclear translocation assay). Conditions: Homo sapiens; mobilization of cytosolic TFEB to the nucleus; TFEB-GFP HeLa cells, 3 h at 37° C. in RPMI, ten concentrations 50 μM to 2.54 nM, 4 runs; read-out: Average EC50.
Assay type: cell-based
Protocol: Immunoblotting of protein extracts isolated from HeLa cells treated overnight, as indicated. Membranes were probed with antibodies for p-T202/Y204-ERK1/2, ERK1/2, p-T389-S6K, and S6K to measure ERK and mTORC1 activities. […] FLAG immunoblotting of cytosolic and nuclear fractions isolated from TFEB-3×FLAG HeLa cells cultured in amino acid-free media and subsequently stimulated as indicated for at least 3 h. Correct subcellular fractionation was verified with H3 and tubulin antibodies. […] After 3 h at 37° C. in RPMI medium containing one of each of the compounds, the cells were washed, fixed, and stained with DAPI and photographed by using confocal automated microscopy (Opera high content system, Perkin Elmer). […] Scale bars represent 30 μm. […] The EC50 for each compound was calculated using Prism software (see Materials and Methods for details). […] Antibody used were p-T389-S6K, S6K and FLAG. […] HeLa cells stably expressing Flag-3×TFEB were infected with lentiviruses encoding a Short hairpin (Sh-) RNA targeting luciferase (control) or RagC and RagD mRNAs. […] TFEB localization was detected with a FLAG antibody, whereas tubulin and H3 were used as controls for the cytosolic and nuclear fraction, respectively; levels of S6K phosphorylation were used to test RagC and RagD knockdown efficiency.
After 3 hours at 37° C. in RPMI medium cells were washed, fixed, and stained with DAPI. For the acquisition of the images, ten pictures per each well of the 384-well plate were taken by using confocal automated microscopy (Opera high content system, Perkin Elmer). A dedicated script was developed to perform the analysis of TFEB localization on the different images (Acapella software, Perkin Elmer). The script calculates the ratio value resulting from the average intensity of nuclear TFEB-GFP fluorescence divided by the average of the cytosolic intensity of TFEB-GFP fluorescence. The results were normalized using negative (RPMI medium) and positive (HBSS starvation) control samples in the same plate. The data are represented by the percentage of nuclear translocation at the different concentrations of each compound using Prism software (GraphPad software). The EC50 for each compound was calculated using non-linear regression fitting (Prism software).
In order to find additional small molecules able to induce the translocation of TFEB from the cytosol to the nucleus, the applicants developed a cell-based high content assay using stable HeLa cells overexpressing TFEB fused to the green fluorescent protein (TFEB-GFP). In the assay imaging of treated cells is acquired by an automated confocal microscope (OPERA system) and the analysis of those images with Acapella image software calculates the ratio of the average of fluorescence intensity of TFEB-GFP between the cytosol and nucleus of the cell (see Materials and methods for details). […] They tested ten concentrations for each inhibitor.
Work on `Nc1ncnc2c1c(-c1cccc(OCc3ccccc3)c1)cn2C1CC(CN2CCCC2)C1` (stereo in doubt) [NVP-ADW742] yielded an EC50 of less than 7 µM. For `CCN1CCN(Cc2ccc(-c3cc4c(N[C@H](C)c5ccccc5)ncnc4[nH]3)cc2)CC1` [AEE788], the EC50 was less than 7 µM. `Cc1ccc(C(=O)Nc2ccc(CN3CCN(C)CC3)c(C(F)(F)F)c2)cc1C#Cc1cnc2cccnn12` [AP24534] was tested, and the EC50 was less than 7 µM. Molecule `Clc1ccc(C2(c3ccc(-c4cn[nH]c4)cc3)CCNCC2)cc1` [AT7867] has an EC50 of less than 7 µM. Work on `CN1CCN(CCOc2cc(OC3CCOCC3)c3c(Nc4c(Cl)ccc5c4OCO5)ncnc3c2)CC1` [AZD0530 (Saracatinib), Saracatinib] yielded an EC50 of 7 to 15 µM. Work on `CCN1CCN(C(=O)Cc2ccc(Nc3ncc(F)c(Nc4ccc(C(=O)Nc5ccccc5Cl)cc4)n3)cc2)CC1` [Aurora A inhibitor 1] yielded an EC50 of less than 7 µM. With `CC[C@@H]1C(=O)N(C)c2cnc(Nc3ccc(C(=O)NC4CCN(C)CC4)cc3OC)nc2N1C1CCCC1` [BI2536] the EC50 was less than 7 µM. In the case of `CN(C)C/C=C/C(=O)Nc1cc2c(Nc3ccc(F)c(Cl)c3)ncnc2cc1O[C@H]1CCOC1` [BIBW2992 (Tovok)], the EC50 is reported as less than 7 µM. Molecule `CN(C)Cc1cccc(N/C(=C2\C(=O)Nc3cc(C(=O)N(C)C)ccc32)c2ccccc2)c1` [BIX02189] has an EC50 of 7 to 15 µM. For `CNC(=O)c1ccc2c(c1)NC(=O)/C2=C(\Nc1cccc(CN(C)C)c1)c1ccccc1` [BIX 02188], the EC50 was greater than 15 µM. For `Nc1nccc(Oc2ccc(NC(=O)c3c[nH]cc(-c4ccc(F)cc4)c3=O)cc2F)c1Cl` [BMS 794833], the EC50 was 7 to 15 µM. `CC(C)c1cnn2c(NCc3ccccc3)cc(NCCCCCCN)nc12` [BS181] gave an EC50 of less than 7 µM. `CN(C)c1ccc(-c2nc3c(N4CCN(CC(=O)Nc5nccs5)CC4)c(Cl)cnc3[nH]2)cc1` [CCT129202] was tested, and the EC50 was less than 7 µM. Molecule `Cc1c[nH]c(-c2cnc(NCCNc3ccc(C#N)cn3)nc2-c2ccc(Cl)cc2Cl)n1` [CHIR99021] has an EC50 of less than 7 µM. In the case of `C=CC(=O)Nc1cc2c(Nc3ccc(F)c(Cl)c3)ncnc2cc1OCCCN1CCOCC1` [CI-1033], the EC50 is reported as less than 7 µM. `Cc1nc(N)sc1-c1ccnc(Nc2ccc(N3CCOCC3)cc2)n1` [CYC116] was tested, and the EC50 was less than 7 µM. For `COc1cc2c(Oc3ccc4[nH]c(C)cc4c3F)ncnc2cc1OCCCN1CCCC1` [Cediranib (AZD2171), Cediranib], the EC50 was less than 7 µM. For `CO[C@H]1C[C@@H]2CC[C@@H](C)[C@@](O)(O2)C(=O)C(=O)N2CCCC[C@H]2C(=O)O[C@H]([C@H](C)C[C@@H]2CC[C@@H](OP(C)(C)=O)[C@H](OC)C2)CC(=O)[C@H](C)/C=C(\C)[C@@H](O)[C@@H](OC)C(=O)[C@H](C)C[C@H](C)/C=C/C=C/C=C/1C` [Deforolimus], the EC50 was 7 to 15 µM. For `Cc1cc(Nc2cc(N3CCN(C)CC3)nc(/C=C/c3ccccc3)n2)n[nH]1` [ENMD-2076], the EC50 was less than 7 µM. Work on `Cn1cc(C2=C(c3cn(C4CCN(Cc5ccccn5)CC4)c4ccccc34)C(=O)NC2=O)c2ccccc21` [Enzastaurin] yielded an EC50 of less than 7 µM. For `CO[C@H]1C[C@@H]2CC[C@@H](C)[C@@](O)(O2)C(=O)C(=O)N2CCCC[C@H]2C(=O)O[C@H]([C@H](C)C[C@@H]2CC[C@@H](OCCO)[C@H](OC)C2)CC(=O)[C@H](C)/C=C(\C)[C@@H](O)[C@@H](OC)C(=O)[C@H](C)C[C@H](C)/C=C/C=C/C=C/1C` [Everolimus (RAD001), Everolimus], the EC50 was greater than 15 µM. `C[C@@H](Oc1cc(-n2cnc3ccc(CN4CCN(C)CC4)cc32)sc1C(N)=O)c1ccccc1C(F)(F)F` [GSK461364] gave an EC50 of less than 7 µM. For `O=C1NC(=O)C(Cc2ccc3nccc(-c4ccncc4)c3c2)S1` (stereo not shown) [GSK1059615], the EC50 was less than 7 µM. `CCS(=O)(=O)Nc1ccc2c(c1)/C(=C(/Nc1ccc(CN3CCCCC3)cc1)c1ccccc1)C(=O)N2` [Hesperadin] was tested, and the EC50 was 7 to 15 µM. Molecule `Nc1nc(Nc2ccc(S(N)(=O)=O)cc2)nn1C(=O)c1c(F)cccc1F` [JNJ-7706621] has an EC50 of 7 to 15 µM. Work on `COc1ccc(-c2ccc3c(N4CCOCC4)nc(N4C[C@@H](C)O[C@@H](C)C4)nc3n2)cc1CO` [KU0063794] yielded an EC50 of less than 7 µM. `O=c1cc(-c2cccc3c2Sc2ccccc2S3)oc(N2CCOCC2)c1` [KU-55933] gave an EC50 of less than 7 µM. `C[C@@H]1CN(CC(=O)Nc2ccc3c(c2)Cc2cccc(-c4cc(=O)cc(N5CCOCC5)o4)c2S3)C[C@H](C)O1` [KU-60019] was tested, and the EC50 was greater than 15 µM. `COc1cc2nccc(Oc3ccc(NC(=O)Nc4ccc(F)cc4F)c(F)c3)c2cc1OC` [Ki8751] gave an EC50 of less than 7 µM. Work on `CC(C)(C)Cn1c(N)nc2ccc(-c3[nH]c(C(C)(C)C)nc3-c3ccc(F)cc3)nc21` [LY2228820] yielded an EC50 of less than 7 µM. With `Cc1cc(Nc2cc(CN3CCOCC3)c3nc(C)c(Cc4ccc(Cl)cc4F)n3n2)[nH]n1` [LY2784544] the EC50 was less than 7 µM. `CS(=O)(=O)CCNCc1ccc(-c2ccc3ncnc(Nc4ccc(OCc5cccc(F)c5)c(Cl)c4)c3c2)o1` [Lapatinib Ditosylate] was tested, and the EC50 was less than 7 µM. `NC1(c2ccc(-c3nc4ccn5c(=O)[nH]nc5c4cc3-c3ccccc3)cc2)CCC1` [MK-2206] showed an EC50 of 7 to 15 µM. `Cn1c(=O)n(-c2ccc(C(C)(C)C#N)cc2)c2c3cc(-c4cnc5ccccc5c4)ccc3ncc21` [NVP-BEZ235] was tested, and the EC50 was less than 7 µM. `COc1cc(N2CCC(N3CCN(C)CC3)CC2)ccc1Nc1ncc(Cl)c(Nc2ccccc2S(=O)(=O)C(C)C)n1` [NVP-TAE684] gave an EC50 of less than 7 µM. `CCOc1cc2ncc(C#N)c(Nc3ccc(OCc4ccccn4)c(Cl)c3)c2cc1NC(=O)/C=C/CN(C)C` [Neratinib] was tested, and the EC50 was greater than 15 µM. `O=C(NOC[C@H](O)CO)c1ccc(F)c(F)c1Nc1ccc(I)cc1F` [PD0325901] gave an EC50 greater than 15 µM. `C[C@@H](Oc1cc(-c2cnn(C3CCNCC3)c2)cnc1N)c1c(Cl)ccc(F)c1Cl` [PF-02341066] showed an EC50 of less than 7 µM. `Oc1cccc(-c2nc(N3CCOCC3)c3oc4ncccc4c3n2)c1` [PI103] gave an EC50 of less than 7 µM. Molecule `Cc1ccc([N+](=O)[O-])cc1S(=O)(=O)N(C)/N=C/c1cnc2ccc(Br)cn12` [PIK75] has an EC50 of less than 7 µM. Molecule `O=C1c2ccccc2-c2n[nH]c3cccc1c23` [SP600125] has an EC50 greater than 15 µM. In the case of `CCN(CC)CCNC(=O)c1c(C)[nH]c(/C=C2\C(=O)Nc3ccc(F)cc32)c1C` [Sunitinib Malate], the EC50 is reported as less than 7 µM. With `Cc1cc(C(C)Nc2ccccc2)c2nc(N3CCOCC3)cc(=O)n2c1` (stereo not shown) [TGX 221] the EC50 was less than 7 µM. `CO[C@H]1C[C@@H]2CC[C@@H](C)[C@@](O)(O2)C(=O)C(=O)N2CCCC[C@H]2C(=O)O[C@H]([C@H](C)C[C@@H]2CC[C@@H](OC(=O)C(C)(CO)CO)[C@H](OC)C2)CC(=O)[C@H](C)/C=C(\C)[C@@H](O)[C@@H](OC)C(=O)[C@H](C)C[C@H](C)/C=C/C=C/C=C/1C` [Temsirolimus] was tested, and the EC50 was 7 to 15 µM. `COc1cc2c(Nc3ccc(Br)cc3F)ncnc2cc1OCC1CCN(C)CC1` [Vandetanib] showed an EC50 of less than 7 µM. Molecule `CCC1=C[C@@H]2CN(C1)Cc1c([nH]c3ccccc13)[C@@](C(=O)OC)(c1cc3c(cc1OC)N(C)[C@H]1[C@@](O)(C(=O)OC)[C@H](OC(C)=O)[C@]4(CC)C=CCN5CC[C@]31[C@@H]54)C2` [Vinorelbine] has an EC50 of less than 7 µM. `COC(=O)Nc1ccc(-c2nc(N3CCOCC3)c3cnn(C4CCN(C(=O)OC)CC4)c3n2)cc1` [WYE354] was tested, and the EC50 was 7 to 15 µM. `C=CC(=O)Nc1cccc(Oc2nc(Nc3ccc(N4CCN(C)CC4)cc3OC)ncc2Cl)c1` [WZ4002] gave an EC50 of 7 to 15 µM. Work on `Cc1ccc(S(=O)(=O)Nc2nc3ccccc3nc2Nc2ccc3nsnc3c2)cc1` [XL147] yielded an EC50 of less than 7 µM. For `COc1cc2c(Oc3ccc(NC(=O)C4(C(=O)Nc5ccc(F)cc5)CC4)cc3F)ccnc2cc1OCCCN1CCOCC1` [XL880 (GSK1363089)], the EC50 was less than 7 µM. `FC(F)c1nc2ccccc2n1-c1nc(N2CCOCC2)nc(N2CCOCC2)n1` [ZSTK474] gave an EC50 of less than 7 µM. `N#CC(=C(/N)Sc1ccccc1N)/C(C#N)=C(\N)Sc1ccccc1N` [drawing 34] showed an EC50 greater than 15 µM.
